Patent publication US20170240556A1, “BIFLUORODIOXALANE-AMINO-BENZIMIDAZOLE KINASE INHIBITORS FOR THE TREATMENT OF CANCER, AUTOIMMUNEINFLAMMATION AND CNS DISORDERS” (4SC DISCOVERY GMBH, priority 2012, published 2017)

How the values were obtained:
[1] = system: Wnt/β-catenin signaling pathway; test: Wnt reporter assay (CellSensor LEF/TCF-bla FreeStyle 293F cells); type: cell-based; conditions: Homo sapiens; LEF/TCF-bla 293F cells, LiCl and mWnt3a stimulation
Experimental: The Wnt reporter assay was performed in stably transfected human HEK293 cells. Wnt signaling was induced by administration of Wnt3a protein and read out by β-Lactamase mediated cleavage of CCF4-AM and subsequent fluorescent detection.
CellSensor LEF/TCF-bla FreeStyle 293F cells (invitrogen #K1677) contain a beta-lactamase reporter gene under control of the β-catenin/LEF/TCF binding elements stably integrated into FreeStyle 293F cells. This cell line can be used to detect antagonists of the Wnt/β-catenin signaling pathway when stimulated by mouse Wnt3a or LiCl. The detection of beta-lactamase is possible with LiveBLAzer FRET—B/G Loading Kit (invitrogen #K1095) with CCF4-AM as subtrate.
Culture Medium: DMEM Medium +10% dialyzed FBS (PAN 2102-P290310), +1% NEAA (PAA M11-003), +1% P/S (Penicillin/Streptomycin, PAA P11-010) +25 mM HEPES (PAA S11-001), +5 μg/ml Blasticidin (PAA P05-017).
Cells (CellSensor LEF/TCF-bla FreeStyle 293F, invitrogen K1677) were split with Culture Medium to reach a confluence at the beginning of the assay of 80-90%.
At start of the assay, cells were harvested from culture and resuspend in assay medium at density of 0,66*10̂6 cells/ml. Subsequently, 60μ1 cell suspension were pipetted in each well of a Poly-D-Lysine 96 well Plate (BD #354640, vertical rows are marked 1 through 12, horizontal lanes are marked A through H),
Plates were subsequently incubated at 37° C. for at least 2 h.
To stimulate with Wnt3a, overnight prestimulation of Wnt signalling pathway with LiCl is necessary. Subsequently, an 8M aqueous LiCl solution was diluted 1:200 in assay medium, and 30 μl of said diluted LiCl solution was plated into the appropriate wells (see below pipetting scheme). Plates were then incubated at 37° C. over night.
Subsequently, compounds and controls were prepared as follows: mWnt3a (R&D 1324-WN, dissolved in PBS+0.1% BSA to 40 μg/ml) was diluted 1:100 in assay medium (=400 ng/ml). Compounds (Cpd) were diluted to a concentration of 10 mM in DMSO to prepare dilution series in assay medium (final concentrations 30 μM, 10 μM, 3 μM, 1 μM, 0.3 μM, 0.1 μM, 0.03 μM and 0.01 μM), which were pipetted into the appropriate wells (see below pipetting scheme). For each dilution of each compound, 3 replicates were tested. Final DMSO concentration was 0.3%.
LiCl and mWnt3a stimulated cells were used as High control (HC), unstimulated cells were used as low control, a blank was prepared from cell free medium plus mWnt3a, and a functional control was prepared with a known Wnt inhibitor (e.g. PKF118-310), final concentrations were as above.
Subsequently, the well was incubated for 5 h at 37° C.
At t=23 hours, FRET reagent mix (Loading Kit with CCF4-AM, Life Technologies #K1096) was prepared; per plate: 138 μl Solution B, 13.8 μl FRET-reagent, and 2300 μl Solution C. 24 μl FRET reagent mix were plated to each well, subsequently plates were incubated for at least 2 h in the dark (it is possible to incubate over night). Subsequently, plates were measured in the BMG FluorStar® plate reader at an emission waveltengths of 460 and 520 nm and with an excitation wavelength of 405 nm.
To determine potential cytotoxicity of the compounds, plates were centrifuge and the supernatant was discarded by dumping the plates. Subsequently, 100 μl Opti-MEM and 50 μl ViaLight (Lonza #LT07-321) Lysis Buffer were added to each well, followed by incubation for 10 min at room temperature (25° C.). Subsequently, 100 μl ViaLight reagent were added to each well, followed by incubation for 2 min at room temperature (25° C.) in the dark. Optionally, 200 μl of the obtained suspension were transferred to a white 96 well plate. The luminescence was measured with a Tecan Ultra plate reader.

[2] = molecular target: Casein kinase 1 delta (CSKN1D) (Homo sapiens, UniProt P48730); test: Casein kinase assay, CK1 delta; type: biochemical; conditions: recombinant CSKN1D 5 nM, ATP 10 μM
Chain of Casein kinase 1 delta (CSKN1D) (P48730 whole entry): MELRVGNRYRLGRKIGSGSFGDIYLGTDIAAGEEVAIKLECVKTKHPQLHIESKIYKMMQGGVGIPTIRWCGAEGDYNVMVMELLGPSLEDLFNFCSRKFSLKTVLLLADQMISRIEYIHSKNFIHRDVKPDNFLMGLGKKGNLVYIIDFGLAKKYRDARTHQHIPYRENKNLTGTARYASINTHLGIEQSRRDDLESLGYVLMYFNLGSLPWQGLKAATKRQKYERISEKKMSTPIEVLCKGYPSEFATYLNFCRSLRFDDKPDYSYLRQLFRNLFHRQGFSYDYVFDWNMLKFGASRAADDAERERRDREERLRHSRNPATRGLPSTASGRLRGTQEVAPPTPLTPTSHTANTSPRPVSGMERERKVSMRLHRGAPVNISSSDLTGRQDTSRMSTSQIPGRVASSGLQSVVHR

[3] = system: Hedgehog signaling pathway; test: Hedgehog reporter assay (Gli Reporter - NIH3T3 Cell Line); type: cell-based; conditions: Mus musculus; Gli reporter NIH3T3 cells, murine SHH stimulation, 24 h; read-out: HH Assay
Experimental: In order to investigate the potency of test compounds to inhibit the Hedgehog signaling pathway, a Gli-Reporter assay was performed.
The “Gli Reporter—NIH3T3 Cell Line” contains the firefly luciferase gene under the control of Gli responsive elements stably integrated into murine NIH3T3 cells (cells purchased from Amsbio). The luciferase expression correlates with activation of the hedgehog signaling pathway. This cell line is validated for its response to stimulation with murine Sonic Hedgehog and to treatment with inhibitors of the hedgehog signaling pathway. A multiplexed viability assay was used to discriminate inhibition on the pathway activity from cell toxicity.
Growth Medium: DMEM, 10% Calf Serum, 1% Penicillin/Streptomycin 500 μg/ml Geneticin (G418 Stock 50 mg/ml).
25.000 cells per well were seeded into a white 96 well plate in 100 μl growth medium and incubated over night at 37° C. and 5% CO2. After removing the supernatant the test compounds and controls (known GLI inhibitor, e.g. GANT-61) were added in different concentrations in a final volume of 45 μl and incubated for 1 h at 37° C. and 5% CO2. For the stimulation of the Hedgehog pathway 5 μl of 10 μg/ml concentrated murine sonic hedgehog (SHH) was added to the cells. A final concentration of 1 μg/ml mSHH and 0.1% DMSO was reached per well. After incubation for 24 h at 37° C. the cells were investigated for viability and reporter activity.
Viability: For the determination of the viability of the treated cells the CellTiter-Fluor Kit from Promega was used. Essentially, only proteases of viable cells are able to cleave the cell-permeant substrate Gly-Phe-AFCoumarin (GF-AFC). By this cleavage the fluorescent AFC is set free and can be detected in a fluorescence reader. For this assay 10 μl of GF-AFC substrate (CellTiter-Fluor, Promega #G6082) was diluted in 2 ml assay buffer from the CellTiter-Fluor Kit and 10 μl of this dilution was added per well to the cells and incubated for 30 min at 37° C. The fluorescence was measured with excitation at 380-400 nm and emission at 505 nm.
Reporter activity: The firefly luciferase reporter activity was detected with the ONE-Glo™ Luciferase Assay System from Promega. For this assay 50 μl ONE-Glo luciferase reagent (Promega #E6120, contains cell lysis buffer and luciferin) was added to each well and incubated at room temperature for 5 min. Luminescence was detected in a plate reader and served as a degree for reporter activity.

[4] = molecular target: Casein kinase 1 epsilon (CSKN1E) (Homo sapiens, UniProt P49674); test: Casein kinase assay, CK1 epsilon; type: biochemical; conditions: recombinant CSKN1E 30 nM, ATP 10 μM
Chain of Casein kinase 1 epsilon (CSKN1E) (P49674 whole entry): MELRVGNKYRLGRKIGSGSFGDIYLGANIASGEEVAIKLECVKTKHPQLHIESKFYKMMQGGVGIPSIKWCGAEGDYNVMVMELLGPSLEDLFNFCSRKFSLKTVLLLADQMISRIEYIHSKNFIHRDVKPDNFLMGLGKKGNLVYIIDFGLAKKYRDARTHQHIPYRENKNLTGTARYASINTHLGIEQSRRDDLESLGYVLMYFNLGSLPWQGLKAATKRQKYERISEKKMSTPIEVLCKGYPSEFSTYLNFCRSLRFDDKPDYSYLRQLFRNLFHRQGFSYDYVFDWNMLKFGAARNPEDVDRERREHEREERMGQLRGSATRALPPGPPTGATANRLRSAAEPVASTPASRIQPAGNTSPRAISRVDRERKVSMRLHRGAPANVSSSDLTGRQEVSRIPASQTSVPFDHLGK

Row | Compound | IC50 [1] [nM] | IC50 [2] [nM] | IC50 [3] [nM] | IC50 [4] [nM]
1 | COc1cc(C(=O)Nc2nc3cc4c(cc3[nH]2)OC(F)(F)O4)ccc1N [Compound 9B, 4-amino-N-(2,2-difluoro-5H-[1,3]dioxolo[4′,5′:4,5]benzo[1,2-d]imidazol-6-yl)-3-methoxybenzamide] | < 5000 | < 200 | ≤ 500 | 
2 | Cc1nc(-c2cccc(C(=O)Nc3nc4cc5c(cc4[nH]3)OC(F)(F)O5)c2)no1 [Compound 137, N-(2,2-difluoro-5H-[1,3]dioxolo[4′,5′:4,5]benzo[1,2-d]imidazol-6-yl)-3-(5-methyl-1,2,4-oxadiazol-3-yl)benzamide] | < 5000 | < 200 | 500 to 1000 | < 200
3 | O=C(Nc1nc2cc3c(cc2[nH]1)OC(F)(F)O3)c1cccc(-c2ncc[nH]2)c1 [Compound 140, N-(2,2-difluoro-5H-[1,3]dioxolo[4′,5′:4,5]benzo[1,2-d]imidazol-6-yl)-3-(1H-imidazol-2-yl)benzamide] | < 5000 | < 200 | 500 to 1000 | < 200
4 | Cc1nnnn1-c1cccc(C(=O)Nc2nc3cc4c(cc3[nH]2)OC(F)(F)O4)c1 [Compound 148, N-(2,2-difluoro-5H-[1,3]dioxolo[4′,5′:4,5]benzo[1,2-d]imidazol-6-yl)-3-(5-methyl-1H-tetrazol-1-yl)benzamide] | < 5000 | < 200 |  | < 200
5 | O=C(Nc1nc2cc3c(cc2[nH]1)OC(F)(F)O3)c1cccc(-n2cnnn2)c1 [Compound 149, N-(2,2-difluoro-5H-[1,3]dioxolo[4′,5′:4,5]benzo[1,2-d]imidazol-6-yl)-3-(1H-tetrazol-1-yl)benzamide] | 5000 to 20000 | < 200 | 1000 to 15000 | < 200
